This experiment concerns B16-F10 melanoma cells. Kind of experiment: Melanin formation inhibition (without UV stress) in B16-F10 melanoma cells. In kind it is cell-based. The procedure:
Experiments were conducted to evaluate suppression of melanin synthesis using B16 melanoma cells by Portulaca Extract, ASG and Portulaca/ASG blend with and without UV stress at different levels. These experiments were performed to quantify skin whitening effects of the blend versus the individual components of the blend. Test (I)—Melanin Formation Inhibition (without UV Stress) Two sets of B16-F10 melanoma cells (ATCC 6475) were seeded at 6 well multi-plates with 1×10^5 density and cultured in Culbecco's Modified Eagle's Medium (DMEM) supplemented 10% fetal bovine serum (FBS) at 37° C. for 24 hours. The medium was exchanged with fresh DMEM media containing 10% FBS and test samples were added and cultured for 72 hours at 37° C. One set of cultured cells was washed with 2 ml of PBS (phosphate buffered saline) and cells were dissolved by 250 ul of 1N NaOH and melanin content was measured by UV absorbance at 450 nm. The other set of cells was incubated after adding 200 ul of MTT (2.5 mg/ml) at 37° C. for 4 hours. Culture medium was discarded and cells were dissolved for 10 minutes at room temperature by adding 2 ml of DMSO. After the cells were completely dissolved, UV absorbance was measured at 570 nm. […] [table]

Take `O=C1O[C@H]([C@H](O)CO)C(O)=C1O[C@H]1O[C@H](CO)[C@@H](O)[C@H](O)[C@H]1O` [ASG, 2-0-α-D-glucopyranosyl-L-ascorbic acid]: the melanin formation inhibition result (1.2% of ASG, 72 hours, FIGS. 1 and 2) was “about 20%”. Further, the “melanin formation inhibition (result in words)” value (B16-F10 cells, concentration series of Table 2) was “melanin formation inhibition in a dose dependent manner”.

The record behind these values is patent publication US20120189564A1, “COMPOSITIONS OF VITAMIN C DERIVATIVE AND PORTULACA EXTRACT” (PRESPERSE CORPORATION, priority 2011, published 2012).
